# Several values for one entry are separate records, joined by “and”; a condition that tells them apart may be missing. Equal entries are not always repeated.
# Target: T1, TbERK8 (Trypanosoma brucei brucei, UniProt Q38B88)
# T1 sequence (Q38B88 1-442): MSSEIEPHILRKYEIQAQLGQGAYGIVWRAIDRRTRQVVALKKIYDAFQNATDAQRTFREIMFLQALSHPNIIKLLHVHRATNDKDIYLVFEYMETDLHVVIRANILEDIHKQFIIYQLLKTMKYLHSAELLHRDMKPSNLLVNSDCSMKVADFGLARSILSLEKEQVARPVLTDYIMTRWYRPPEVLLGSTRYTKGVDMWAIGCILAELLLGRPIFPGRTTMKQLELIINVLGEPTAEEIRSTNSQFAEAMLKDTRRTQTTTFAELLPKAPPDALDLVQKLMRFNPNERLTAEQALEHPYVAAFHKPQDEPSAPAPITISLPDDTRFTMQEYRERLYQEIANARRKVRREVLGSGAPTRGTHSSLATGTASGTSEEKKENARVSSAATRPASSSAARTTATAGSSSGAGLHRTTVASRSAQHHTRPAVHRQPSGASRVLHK
# Assay: Luciferase-based kinase inhibition assay (ATP luminescence), GST-tagged TbERK8 with MBP substrate
# Format: biochemical
# Set-up: raw luminescence, TbERK8: unit of the concentration uncertain
# Conditions: for raw luminescence, TbERK8: replicate wells; for Luminescence Raw (Kinase-Glo): TbERK8
# Protocol: Escherichia coli strain Rosetta 2 (DE3) (Cat# 71397, MilliporeSigma, Burlington, MA) was transformed with the plasmid pGEX2T expressing the full-length hERK8 coding region or pGSTAg expressing the full-length TbERK8 coding region. One liter of Terrific Broth media containing 100 μg/ml Ampicillin and 30 μg/ml chloramphenicol in 2 L baffled flasks was inoculated with 25 mL from an overnight culture of Rosetta 2 strains harboring either the pGEX2T-hERK8 or pGSTAg-TbERK8 plasmid. Two baffled flasks were inoculated with each overnight strain and incubated and shaken at 175 RPM in a New Brunswick Innova 44R Incubator Shaker (Fischer Scientific, Pittsburgh, PA) at 37 °C until the cultures reached an O.D.600 of 0.94. Once the cultures in the flask reached the target O.D.600, the flasks were cooled to 4 °C in an ice water bath. The cooled cultures were induced by adding isopropyl β-D-1-thiogalactopyranoside (IPTG) to a final concentration of 0.1 mM and shaken at 16 °C for 16 hours at 175 RPM in a New Brunswick Innova 44R Incubator Shaker (Fischer Scientific, Pittsburgh, PA). On the next day, the cultures were pelleted by centrifugation at 9000 xg in a JLA 10.500 rotor (Beckman Coulter; Brea, CA), and the media was decanted. The pellet was flash-frozen in liquid nitrogen and then thawed on ice. The thawed pellet was resuspended in lysis buffer (25 mM Tris, 75 mM NaCl, 0.5% TritonX-100 and 0.5% Nonidet P-40, 1 mM phenylmethanesulfonyl fluoride, 1 mM benzamidine⋅HCl) and lysed using a microfluidizer M-110P from Microfluidics (Westwood, MA). The crude lysates were clarified by centrifugation at 140,000 xg in a 45Ti rotor (Beckman Coulter, Brea, CA) for 30 min at 4°C. The clarified lysate was loaded by gravity to a 3 mL glutathione agarose resin column (Cat# G-250–10, GOLDBIO, St. Louis, MO) formed in a 1.5 × 20 cm glass chromatography column (Cat# 7371522, Bio-Rad, Hercules, CA). The column was washed with 30 mL of PBS (pH 7.4) containing 1 mM DTT. Elution buffer (50 mM Tris buffer pH 8.0 containing 10 mM reduced glutathione and 1 mM DTT was added to the washed column), and 1 mL fractions were collected by gravity and examined by SDS-PAGE stained by Coomassie dye. Peak fractions pooled from the elution were dialyzed (4x 1:500 dilutions) in kinase buffer (30 mM Tris, pH 7.4, 10 mM MgCl2, 1 mM DTT, 5% glycerol).
# We performed kinase assays in buffer K (30 mM Tris pH 7.4, 10 mM MgCl2, 1 mM DTT, 5% glycerol, 50 μM ATP, and 0.1 mg/mL BSA) at 30°C for 30 min in 30 μL reactions. GST-tagged HsERK8 and TbERK8 were tested using myelin basic protein (MBP) (Cat# 13–110, Millipore, Darmstadt, Germany) as the substrate at increasing concentrations to determine the optimal activity for the assay. ATP consumption was determined by adding equal volumes of the kinase assay reagent (Promega, Cat# V5601, Madison, WI) following the manufacturer’s protocol. Luminescence was measured using the microplate reader (SpectraMax L, Molecular Devices, Sunnyvale, CA).
# These compounds were screened for kinase inhibition utilizing a luciferase-based assay. Briefly, the kinases were tested using MBP as the substrate at a 14-fold molar excess in 384-well flat-bottom white plates (BRANDTECH Scientific, Cat# 781681, Essex, CT). These compounds were tested at concentrations ranging from […] to 150 nM. The kinases plus MBP substrate reactions were incubated with each inhibitor for 30 minutes at 30°C. Equal volumes of kinase assay mix Promega (Cat# V5601, Madison, WI) were added to the kinase/inhibitor reaction after 30 minutes, following the manufacturer’s protocol. ATP luminescence was measured using a microplate reader (SpectraMax L, Molecular Devices, Sunnyvale, CA). IC50 values were calculated from assays done in triplicate by fitting the data using Prism 8.1.1 (GraphPad).
smiles,measurement,setting,value
C[C@]12C=CC(=O)C=C1CC[C@@H]1[C@@H]2[C@@H](O)C[C@@]2(C)[C@H]1CC[C@]2(O)C(=O)CO [Prednisolone],IC50,,> 10 mM
same,"raw luminescence, TbERK8","0.00015 (unit uncertain) compound, sheet ADP_ATP_glo081724 (3)",151.546 RLU and 115.356 RLU and 183.213 RLU
same,"raw luminescence, TbERK8","0.00015 (unit uncertain) compound, sheet Kinase_glo 08142024 (2)",851.739 RLU and 832.717 RLU and 648.843 RLU
same,"raw luminescence, TbERK8","0.00015 (unit uncertain) compound, sheet Kinase_glo_080924_IFPS (2)",2863.49 RLU and 2847.77 RLU and 2549.07 RLU
same,"raw luminescence, TbERK8","0.00061 (unit uncertain) compound, sheet ADP_ATP_glo081724 (3)",126.666 RLU and 99.523 RLU and 185.475 RLU
same,"raw luminescence, TbERK8","0.00061 (unit uncertain) compound, sheet Kinase_glo 08142024 (2)",699.567 RLU and 777.766 RLU and 826.377 RLU
same,"raw luminescence, TbERK8","0.00061 (unit uncertain) compound, sheet Kinase_glo_080924_IFPS (2)",1033.1 RLU and 1001.66 RLU and 918.564 RLU
same,"raw luminescence, TbERK8","0.00244 (unit uncertain) compound, sheet ADP_ATP_glo081724 (3)",151.546 RLU and 108.57 RLU and 214.879 RLU
same,"raw luminescence, TbERK8","0.00244 (unit uncertain) compound, sheet Kinase_glo 08142024 (2)",716.475 RLU and 665.751 RLU and 646.73 RLU
same,"raw luminescence, TbERK8","0.00244 (unit uncertain) compound, sheet Kinase_glo_080924_IFPS (2)",2143.15 RLU and 2092.68 RLU and 2029.79 RLU
same,"raw luminescence, TbERK8","0.00977 (unit uncertain) compound, sheet ADP_ATP_glo081724 (3)",255.593 RLU and 147.022 RLU and 271.426 RLU
same,"raw luminescence, TbERK8","0.00977 (unit uncertain) compound, sheet Kinase_glo 08142024 (2)",437.494 RLU and 490.331 RLU and 469.196 RLU
same,"raw luminescence, TbERK8","0.00977 (unit uncertain) compound, sheet Kinase_glo_080924_IFPS (2)",2030.86 RLU and 2806.27 RLU and 2958.99 RLU
same,"raw luminescence, TbERK8","0.03906 (unit uncertain) compound, sheet ADP_ATP_glo081724 (3)",165.118 RLU and 117.618 RLU and 199.046 RLU
same,"raw luminescence, TbERK8","0.03906 (unit uncertain) compound, sheet Kinase_glo 08142024 (2)",667.865 RLU and 653.07 RLU and 765.085 RLU
same,"raw luminescence, TbERK8","0.03906 (unit uncertain) compound, sheet Kinase_glo_080924_IFPS (2)",2637.83 RLU and 2496.34 RLU and 2622.11 RLU
same,"raw luminescence, TbERK8","0.15625 (unit uncertain) compound, sheet ADP_ATP_glo081724 (3)",334.759 RLU and 251.069 RLU and 300.831 RLU
same,"raw luminescence, TbERK8","0.15625 (unit uncertain) compound, sheet Kinase_glo 08142024 (2)",1037.73 RLU and 1041.95 RLU and 1113.81 RLU
same,"raw luminescence, TbERK8","0.15625 (unit uncertain) compound, sheet Kinase_glo_080924_IFPS (2)",2180.42 RLU and 2133.34 RLU and 2264.78 RLU
same,"raw luminescence, TbERK8","0.62500 (unit uncertain) compound, sheet ADP_ATP_glo081724 (3)",495.353 RLU and 366.425 RLU and 545.114 RLU
same,"raw luminescence, TbERK8","0.62500 (unit uncertain) compound, sheet Kinase_glo 08142024 (2)",1265.98 RLU and 1276.55 RLU and 1342.07 RLU
same,"raw luminescence, TbERK8","0.62500 (unit uncertain) compound, sheet Kinase_glo_080924_IFPS (2)",3642.09 RLU and 3777.07 RLU and 3651.3 RLU
same,"raw luminescence, TbERK8","2.50000 (unit uncertain) compound, sheet ADP_ATP_glo081724 (3)",791.659 RLU and 658.208 RLU and 870.825 RLU
same,"raw luminescence, TbERK8","2.50000 (unit uncertain) compound, sheet Kinase_glo 08142024 (2)",2855.33 RLU and 2339.64 RLU and 2348.09 RLU
same,"raw luminescence, TbERK8","2.50000 (unit uncertain) compound, sheet Kinase_glo_080924_IFPS (2)",13901.1 RLU and 13588.9 RLU and 13357.6 RLU
same,"raw luminescence, TbERK8","10.00000 (unit uncertain) compound, sheet ADP_ATP_glo081724 (3)",8500.16 RLU and 8653.97 RLU and 8624.56 RLU
same,"raw luminescence, TbERK8","10.00000 (unit uncertain) compound, sheet Kinase_glo 08142024 (2)",38026 RLU and 38805.9 RLU and 42117.7 RLU
same,"raw luminescence, TbERK8","10.00000 (unit uncertain) compound, sheet Kinase_glo_080924_IFPS (2), signal = ATP left",19789.8 RLU and 19980.7 RLU and 19481.5 RLU
same,Luminescence Raw (Kinase-Glo),"inhibitor 0.00976562 mM, sheet Sil_Pred3, read 3",32992.2 and 33121 and 33174.9
same,Luminescence Raw (Kinase-Glo),"inhibitor 0.0195312 mM, sheet Sil_Pred3, read 3",38593.5 and 41076.8 and 40952.6
same,Luminescence Raw (Kinase-Glo),"inhibitor 0.0390625 mM, sheet Sil_Pred3, read 3",46486.1 and 45877 and 46038.6
same,Luminescence Raw (Kinase-Glo),"inhibitor 0.078125 mM, sheet Sil_Pred3, read 3",44202 and 48636.7 and 49203.6
same,Luminescence Raw (Kinase-Glo),"inhibitor 0.15625 mM, sheet Sil_Pred3, read 3",45380.3 and 46230.7 and 46420.5
same,Luminescence Raw (Kinase-Glo),"inhibitor 0.3125 mM, sheet Sil_Pred3, read 3",39235.4 and 40486.4 and 39917.2
same,Luminescence Raw (Kinase-Glo),"inhibitor 0.625 mM, sheet Sil_Pred3, read 3",39298.7 and 39928.9 and 40873
same,Luminescence Raw (Kinase-Glo),"inhibitor 0.00976562, sheet Sil_Pred1, read 1",36007.1 and 35961.3 and 35122.3
same,Luminescence Raw (Kinase-Glo),"inhibitor 0.00976562, sheet Sil_Pred2, read 2",32848.9 and 34114.2 and 33997.9
same,Luminescence Raw (Kinase-Glo),"inhibitor 0.0195312, sheet Sil_Pred1, read 1",43841.6 and 45072.5 and 44815.8
same,Luminescence Raw (Kinase-Glo),"inhibitor 0.0195312, sheet Sil_Pred2, read 2",39947.1 and 42452 and 42749.7
same,Luminescence Raw (Kinase-Glo),"inhibitor 0.0390625, sheet Sil_Pred1, read 1",50695.1 and 50667.6 and 49805.8
same,Luminescence Raw (Kinase-Glo),"inhibitor 0.0390625, sheet Sil_Pred2, read 2",46810.4 and 47329.1 and 47238.4
same,Luminescence Raw (Kinase-Glo),"inhibitor 0.078125, sheet Sil_Pred1, read 1",49017.3 and 54222.7 and 54701.7
same,Luminescence Raw (Kinase-Glo),"inhibitor 0.078125, sheet Sil_Pred2, read 2",44868.4 and 49845.5 and 51285.2
same,Luminescence Raw (Kinase-Glo),"inhibitor 0.15625, sheet Sil_Pred1, read 1",51194.8 and 52235.4 and 51680.7
same,Luminescence Raw (Kinase-Glo),"inhibitor 0.15625, sheet Sil_Pred2, read 2",47366.3 and 47915.2 and 47922.2
same,Luminescence Raw (Kinase-Glo),"inhibitor 0.3125, sheet Sil_Pred1, read 1",44343.6 and 45716.6 and 43953.9
same,Luminescence Raw (Kinase-Glo),"inhibitor 0.3125, sheet Sil_Pred2, read 2",41235.6 and 41775.2 and 41631
same,Luminescence Raw (Kinase-Glo),"inhibitor 0.625, sheet Sil_Pred1, read 1",43960.8 and 44712.6 and 44414.7
same,Luminescence Raw (Kinase-Glo),"inhibitor 0.625, sheet Sil_Pred2, read 2",40144.8 and 41517 and 41924

# — paper PMC12445744, “Molecular docking to homology models of human and Trypanosoma brucei ERK8 that identified ortholog-specific inhibitors” (PLOS Neglected Tropical Diseases, 2025)
